# Measured values as given in patent US8410056B2, “Pro-oxidant anti-cancer compounds” (priority 2006, dated 2013).
# Key:
# MCF-7 tumors = assay: MCF-7 xenograft in nude mice; type: in vivo; conditions: 10 μmoles i.p. every 3 d
# MCF-7 cells = assay: Apoptosis, annexin V-FITC method; type: cell-based, human
# Procedure: (§1) Cell culture and treatment. […] Cells were cultured in DMEM with 10% FCS, 100 U/ml penicillin and 100 μg/ml streptomycin at 37° C. in a humidified atmosphere of 5% CO2. Mitochondrial complex I-deficient (Breen and Scheffler 1979; DeFrancesco et al 1976; Scheffler et al 2004) and complex II-deficient cells (Albayrak et al 2003; Oostveen et al 1995) were grown in DMEM with 10% FCS, […] glucose and non-essential amino acids.
# (§2) At approximately 70% confluency, cells were treated with up to 50 μM α-TOS (Sigma), up to 100 μM 3-BP (Aldrich) or 30 ng/ml of human recombinant tumor necrosis factor-related apoptosis—inducing ligand (TRAIL) (Weber et al, 2002) under normoxic or hypoxic conditions. For hypoxia, cells overlaid with nitrogen-purged medium were placed in a hypoxic chamber pre-flushed extensively with nitrogen. The hypoxic chamber with cells was then placed in the incubator as required. α-TOS was dissolved in ethanol and used such that the final ethanol concentration in cell culture medium was <0.1% (v/v). Stock solutions of 3-BP were prepared in PBS prior to use.
# Apoptosis assessment. Apoptosis was quantified using the annexin V-FITC method, which detects phosphatidyl serine externalized in the early phases of apoptosis (Boersma et al, 1996). Briefly, cells were plated at 10^5 per well in 24-well plates and, after an overnight recuperation, treated with α-TOS or 3-BP alone or in combination. Floating and attached cells were harvested, washed with PBS, resuspended in 0.2 ml binding buffer (10 mM Hepes, 140 mM NaCl, 5 mM CaCl2, pH 7.4), incubated for 30 min at 4° C. with 2 μl annexin V-FITC (PharMingen), supplemented with 200 μl of 50 μg/ml propidium iodide (PI; Sigma), and analyzed by flow cytometry (FACScalibur, Becton Dickinson) using channel 1 for annexin V-FITC binding and channel 2 for PI staining. Cell death was quantified as the percentage of cells with increased annexin V binding and PI staining. […]
# [1] = cited from earlier work
# [2] = target: T1, complex II/SDH-dependent activity in NeuTL cells (Mus musculus, UniProt Q8K2B3+Q9CQA3+Q9CXV1+Q9CZB0); assay: MTT reduction assay of complex II/SDH activity in whole cells; type: cell-based, murine
# T1 construct: For specifically measuring complex II activity in whole cells; endogenous in cells; host or cells: NeuTL murine breast cancer cells
# T1 sequence (Q8K2B3 43-664): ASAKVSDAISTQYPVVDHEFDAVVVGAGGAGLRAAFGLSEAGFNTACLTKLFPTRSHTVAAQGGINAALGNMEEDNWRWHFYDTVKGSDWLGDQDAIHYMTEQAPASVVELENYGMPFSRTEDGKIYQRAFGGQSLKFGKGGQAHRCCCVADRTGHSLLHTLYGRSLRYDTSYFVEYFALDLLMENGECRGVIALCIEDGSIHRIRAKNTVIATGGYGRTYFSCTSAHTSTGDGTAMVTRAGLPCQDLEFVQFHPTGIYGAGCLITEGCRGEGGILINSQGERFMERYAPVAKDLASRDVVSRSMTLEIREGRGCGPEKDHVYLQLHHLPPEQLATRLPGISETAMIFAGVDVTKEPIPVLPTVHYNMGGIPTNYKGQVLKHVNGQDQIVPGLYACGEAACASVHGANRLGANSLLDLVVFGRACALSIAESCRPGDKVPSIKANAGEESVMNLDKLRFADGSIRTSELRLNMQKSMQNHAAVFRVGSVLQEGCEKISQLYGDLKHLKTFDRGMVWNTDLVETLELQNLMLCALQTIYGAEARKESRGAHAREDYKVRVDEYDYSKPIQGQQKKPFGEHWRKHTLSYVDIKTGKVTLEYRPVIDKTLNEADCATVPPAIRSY
# T1 sequence (Q9CQA3 31-282): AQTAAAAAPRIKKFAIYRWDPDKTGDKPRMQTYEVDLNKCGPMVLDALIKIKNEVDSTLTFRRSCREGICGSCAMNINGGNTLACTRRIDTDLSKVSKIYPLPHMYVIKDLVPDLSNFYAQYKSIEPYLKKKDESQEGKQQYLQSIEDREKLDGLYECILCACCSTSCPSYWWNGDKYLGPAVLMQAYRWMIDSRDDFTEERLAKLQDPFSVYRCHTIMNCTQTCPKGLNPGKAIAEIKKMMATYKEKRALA
# T1 sequence (Q9CZB0 30-169): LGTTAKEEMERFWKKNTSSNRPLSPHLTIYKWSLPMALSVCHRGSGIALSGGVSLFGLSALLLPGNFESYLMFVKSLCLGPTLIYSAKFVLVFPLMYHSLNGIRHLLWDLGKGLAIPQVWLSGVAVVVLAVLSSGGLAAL
# T1 sequence (Q9CXV1 57-159): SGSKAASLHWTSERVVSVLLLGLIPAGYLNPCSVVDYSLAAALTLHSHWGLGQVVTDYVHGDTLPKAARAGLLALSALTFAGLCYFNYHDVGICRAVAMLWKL
# Procedure: MTT assay. MTT solutions were prepared immediately before use by dissolving 2.5 mg/ml 3-(4,5-dimethyl[…] (MTT) (Sigma) in PBS alone or phenol red-free RPMI medium containing 20 mM succinic acid, pH 7.4. Stock solutions of 3-nitropropionic acid (3NPA) in ethanol, thenoyltrifluoroacetone (TTFA) in DMSO, 3-BP in PBS, α-TOS in DMSO, and MitoQ (Alleva et al, 2003, James et al, 2005) in ethanol were prepared. The drugs were tested on NeuTL cells cultured in exponential growth phase in 96-well microtitre plates using 4-8 replicate wells per dilution assayed. To assess the ability of MitoQ to restore MTT reduction, cells were pre-incubated for 60 min with 2 or 5 μM MitoQ. Final concentrations of ethanol or DMSO in cultures were ≦0.1%. Treated and control cells were allowed to reduce MTT to blue formazan crystals for 2 or 4 h at 37° C. and 5% CO2. After incubation, culture supernatants were removed except for 30 μl, before the formazan crystals were solubilized by addition of 150 μl DMSO, and absorbance values were measured at 570 nm using a Fluorostar Optima plate reader.
# To this end, the present inventors investigated whether α-TOS interferes with UbQ binding in complex II. For specifically measuring complex II activity in whole cells, a short-term (1-2 h) assay was used based on the reduction of the tetrazolium salt, MTT (Maehara et al, 1988). […] For this, oxidative respiration of murine NeuTL breast cancer cells was sustained on high levels of succinate (20 mM), thereby promoting the SDH activity of complex II (Maehara et al, 1988). The cells were then assayed within 1-2 h for their ability to enzymatically reduce MTT, which under conditions of high succinate becomes a specific indicator of complex II/SDH-dependent activity (Maehara et al, 1988, Berridge and Tan, 1993).
# MDA-MB-453 cells = assay: Apoptosis, annexin V-FITC method; type: cell-based, human
# Procedure: as §1, §2
# Apoptosis assessment. Apoptosis was quantified using the annexin V-FITC method, which detects phosphatidyl serine externalized in the early phases of apoptosis (Boersma et al, 1996). Briefly, cells were plated at 10^5 per well in 24-well plates and, after an overnight recuperation, treated with α-TOS or 3-BP alone or in combination. Floating and attached cells were harvested, washed with PBS, resuspended in 0.2 ml binding buffer (10 mM Hepes, 140 mM NaCl, 5 mM CaCl2, pH 7.4), incubated for 30 min at 4° C. with 2 μl annexin V-FITC (PharMingen), supplemented with 200 μl of 50 μg/ml propidium iodide (PI; Sigma), and analyzed by flow cytometry (FACScalibur, Becton Dickinson) using channel 1 for annexin V-FITC binding and channel 2 for PI staining. Cell death was quantified as the percentage of cells with increased annexin V binding and PI staining.
# RNA interference (RNAi). Short-interfering RNA (siRNA) oligonucleotides with 3′-dTdT overhangs specific for Akt1 were synthesized by Qiagen. The sequences are as follows: target sequence: […] (SEQ ID NO 2); siRNA duplex sequences: sense—r([…] )dTdT (SEQ ID NO 3), antisense—r([…] )dTdT (SEQ ID NO 4). The transfection of cultured MDA-MB-453 cells with siRNA was performed using OligofectAmine (Invitrogen) and OptiMEM according to the manufacturer's instructions. Briefly, cells were allowed to reach 50% confluency and supplemented with […] siRNA pre-incubated with OligofectAmine and overlayed with OptiMEM. Cells were washed 24 h later with PBS, overlayed with complete DMEM and treated as required after an additional 24 h.
# Transfection of MDA-MB-453 cells with siRNAs was performed using OligofectAmine and OptiMEM. Briefly, cells were allowed to reach ˜50% confluency and supplemented with 60 pmol/l siRNA pre-incubated with OligofectAmine and overlayed with OptiMEM. Cells were washed 24 h later with PBS, overlaid with complete DMEM, cultured for an additional 24 h, 48 h and transgene expression confirmed using Western blotting before they were used for further experiments.
smiles,measurement,setting,value
"Cc1c(C)c2c(c(C)c1OC(=O)CCC(=O)O)CC[C@@](C)(CCC[C@H](C)CCC[C@H](C)CCCC(C)C)O2 [Compound 1, α-tocopheryl succinate]",tumor growth,MCF-7 tumors,repressed the growth of tumors in the treated group of mice with an overall reduction in tumor size
same,apoptosis after CybL siRNA,MCF-7 cells; MCF7 cells treated with siRNA against CybL,reduced the levels of apoptosis mediated by α-TOS
same,apoptosis,"MCF-7 cells; MCF-7 (erbB2-low), 24 h, normoxia or hypoxia",sensitive to apoptosis induced by α-TOS under both normoxia and hypoxia
same,pKa,[1],< 6
same,inhibition of MTT reduction after MitoQ pre-incubation,[2]; cells pre-incubated 1 h with MitoQ,significantly overcome by pre-incubation of the cells with MitoQ
same,enzymatic reduction of MTT,[2]; within a few hours of treatment,significant decreases occurring in the levels of MTT reduction
same,apoptosis,"MDA-MB-453 cells; MDA-MB-453 (erbB2-high), normoxia or hypoxia",sensitive to apoptosis induced by α-TOS under both normoxia and hypoxia
same,apoptosis after Akt1 knock-down,"MDA-MB-453 cells; pre-treated with 60 pM Akt1 siRNA for 24 h, then drug 24 h",sensitizes
